Test results from patent US20130267532A1, “CYCLIC AMIDE COMPOUNDS AND THEIR USE IN THE TREATMENT OF DISEASE” (priority 2010, published 2013).

Columns and labels:
hERG potassium channel = target: T1, hERG potassium channel (Homo sapiens, UniProt Q12809); assay: hERG analysis Method 1 (QPatch HT automated patch clamp, CHO cells); assay type: cell-based; details: hERG-expressing CHO cells, tail current, room temperature (22±2° C.), 4 cumulative concentrations
T1 construct: expressed in transfected cells; host or cells: Chinese hamster ovary K1 (CHO) cells stably expressing hERG
T1 sequence (Q12809 whole entry): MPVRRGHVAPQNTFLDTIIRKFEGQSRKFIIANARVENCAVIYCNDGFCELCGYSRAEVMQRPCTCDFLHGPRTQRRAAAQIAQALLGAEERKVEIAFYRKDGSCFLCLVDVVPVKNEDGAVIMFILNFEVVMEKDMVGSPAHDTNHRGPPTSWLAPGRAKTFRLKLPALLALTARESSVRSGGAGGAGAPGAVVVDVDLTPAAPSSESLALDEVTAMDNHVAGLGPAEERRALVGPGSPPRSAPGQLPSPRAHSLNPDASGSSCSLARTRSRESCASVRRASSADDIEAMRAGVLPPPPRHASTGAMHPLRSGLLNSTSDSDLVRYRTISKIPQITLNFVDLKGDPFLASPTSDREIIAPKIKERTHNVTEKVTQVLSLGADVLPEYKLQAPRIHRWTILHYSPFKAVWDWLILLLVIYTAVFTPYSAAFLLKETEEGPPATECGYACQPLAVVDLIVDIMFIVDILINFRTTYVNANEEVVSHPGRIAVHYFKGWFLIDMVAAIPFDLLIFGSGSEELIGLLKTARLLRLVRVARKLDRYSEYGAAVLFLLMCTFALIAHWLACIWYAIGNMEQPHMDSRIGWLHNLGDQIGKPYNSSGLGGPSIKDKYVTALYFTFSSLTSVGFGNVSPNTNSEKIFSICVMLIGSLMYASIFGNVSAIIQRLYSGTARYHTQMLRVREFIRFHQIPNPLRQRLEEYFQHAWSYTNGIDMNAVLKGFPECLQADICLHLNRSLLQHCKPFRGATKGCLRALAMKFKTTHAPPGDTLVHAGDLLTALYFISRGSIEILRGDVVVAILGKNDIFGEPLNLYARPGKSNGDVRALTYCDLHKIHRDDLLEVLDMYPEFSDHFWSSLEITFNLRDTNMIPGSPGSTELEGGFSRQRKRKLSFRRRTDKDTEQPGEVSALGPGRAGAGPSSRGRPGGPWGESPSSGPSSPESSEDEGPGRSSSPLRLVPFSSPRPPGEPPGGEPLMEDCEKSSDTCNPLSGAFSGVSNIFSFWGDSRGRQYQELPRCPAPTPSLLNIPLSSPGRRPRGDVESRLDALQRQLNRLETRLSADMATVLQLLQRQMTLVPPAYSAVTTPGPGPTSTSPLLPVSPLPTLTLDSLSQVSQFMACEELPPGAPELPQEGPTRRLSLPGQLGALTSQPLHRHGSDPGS
Method: hERG (Human Ether-a-go-go Related Gene) Analysis—Method 1
The hERG potassium current is measured in a hERG-stably-expressing Chinese hamster ovary K1 (CHO) cells. The experiments were performed using an automated planar patch-clamp system QPatch HT (Sophion Bioscience A/S). The application of pressure for forming gigaseals and whole-cell patch clamp configuration were established using the QPatch assay software. Patch-clamp experiments were performed in voltage-clamp mode and whole-cell currents were recorded from individual cells. The following stimulation protocol was applied to investigate the effects of compounds on hERG potassium channel.: The membrane potential was held at −80 mV and repetitively (every 15 s) depolarized to +20 mV for 5 s after the pulse to −50 mV for 20 ms served to define the baseline, followed by repolarizing step to −50 mV for 5 s to evaluate of the tail current amplitude. Experiments were conducted at room temperature (22±2° C.).
Effects of compounds were determined from cumulative applications of increasing 4 concentrations and calculated as percent of blocked current. The data points were fitted with Hill equation to calculate half-maximal inhibition concentrations.
The test solution includes:
Extracellular solution (mM): 2 mM of CaCl2, 1 mM of MgCl2, 10 mM of HEPES, 4 mM of KCl, 145 mM of NaCl, and 10 mM of glucose; and
Intracellular solution (mM): 5.4 mM of CaCl2, 1.8 mM of MgCl2, 10 mM of HEPES, 31 mM of KOH, 10 mM of EGTA, 120 mM of KCl, and 4 mM of ATP.

PAMPA analysis = assay type: in vitro ADME; details: pH 7.4, GIT Lipid-0, incubation for 4 h, read-out: Pe pH 7.4
Method: Donor: System Solution Concentrate (pION inc.) (25 mL) and DMSO (50 mL) (f.c. 5%) was diluted to 1 L with milliQ water, adjusted to pH5.0 or 7.4 with NaOH. Compound solution (5 μL, 10 mM solution in DMSO) was added to 1 mL of system solution prepared as above, and filtered.
Acceptor: Acceptor Sink Buffer(pION inc.)
Compound solution (200 μL) was added to Donor plate. GIT Lipid-0 (pION inc.) […] was added to Acceptor plate. Acceptor Sink Buffer (200 μL) was added to Acceptor plate. Donor and Acceptor plates were superposed. After incubation for 4 h under humidified conditions, the concentration of test compound in both solutions of Acceptor and Donor plates were measured by UV plate reader (190-500 nm). Permeation coefficient Pe(10^−6 cm/sec) was calculated by the equation shown below.
[formula] ra=(VD/VA)Pe^(A→D)/Pe^(D→A)=rVPe^(A→D)/Pe^(D→A)
rV=(VD/VA) • VD=volume of donor well • VA=volume of acceptor well • t=permeation time • τ^SS=steady state time • R=retention • CD and CA=concentration in donor and acceptor well The results are shown in Table 4.

Row | SMILES | Papp at 4 h, 50 µM (PAMPA analysis) | IC50 (hERG potassium channel)
1 | CCCCNc1nc(N)nc(C)c1Cc1ccc(N2CCN(C)CC2=O)cc1OC [Example 1, 1-(4-{[2-Amino-4-(butylamino)-6-methylpyrimidin-5-yl]methyl}-3-methoxyphenyl)-4-methylpiperazin-2-one] | 35.6 ×10⁻⁶ cm/s | 2900 nM
2 | CCCCCNc1nc(N)nc(C)c1Cc1ccc(N2CCN(C)CC2=O)cc1OC [Example 2, 1-(4-{[2-Amino-4-methyl-6-(pentylamino)pyrimidin-5-yl]methyl}-3-methoxyphenyl)-4-methylpiperazin-2-one] | 44.2 ×10⁻⁶ cm/s | 800 nM
3 | CCC[C@@H](CO)Nc1nc(N)nc(C)c1Cc1ccc(N2CCN(C)CC2=O)cc1OC [Example 4, (S)-1-(4-{[2-Amino-4-(1-hydroxypentan-2-ylamino)-6-methylpyrimidin-5-yl]methyl}-3-methoxyphenyl)-4-methylpiperazin-2-one] | 1.3 ×10⁻⁶ cm/s | > 10000 nM

The next lines start with results.

Row | Papp at 4 h, 50 µM (PAMPA analysis) | SMILES | IC50 (hERG potassium channel)
4 | 23.7 ×10⁻⁶ cm/s | CCC[C@@H](CCO)Nc1nc(N)nc(C)c1Cc1ccc(N2CCN(C)CC2=O)cc1OC [Example 3, (S)-1-(4-{[2-Amino-4-(1-hydroxyhexan-3-ylamino)-6-methylpyrimidin-5-yl]methyl}-3-methoxyphenyl)-4-methylpiperazin-2-one] | > 10000 nM
5 | < 0.1 ×10⁻⁶ cm/s | CCC[C@@H](CCO)Nc1nc(N)nc(C)c1Cc1ccc(N2CCNCC2=O)cc1OC [Example 5, (S)-1-(4-{[2-Amino-4-(1-hydroxyhexan-3-ylamino)-6-methylpyrimidin-5-yl]methyl}-3-methoxyphenyl)piperazin-2-one] | > 10000 nM
